The text below walks through data of US20120294886A1, “PEPTIDE CONJUGATES FOR SUPPRESSING AN IMMUNE RESPONSE, METHODS OF MAKING AND USES THEREFOR” (The University of Queensland, priority 2011, published 2012).

Experiment [1] deals with SJL/J mice. In words: Induction of EAE by immunisation with peptide in complete Freund's adjuvant (Example 2). It counts as in vivo, mouse. The following applies: for Day of Onset / Incidence: EAE; for Day of Onset / Incidence / Score: mice immunised with the peptide in CFA; for Incidence: followed for 6 weeks; for Score: clinical score of EAE; for Duration: duration of the first episode of disease. On the procedure: In examples 2 and 4-8, PLP encephalitogenic epitopes were injected into SJL/J mice to induce EAE, so the mice could be used as an animal model for MS. Such a model has been used in numerous studies, including where preventative or treatment methods for MS are being investigated. The study described in Hofstetter et al., 2007, for example, describes the induction of EAE in SJL mice at pages 1373-1374.
Mice were immunised with the above non-palmitoylated, S-palmitoylated or N-palmitoylated peptides in complete Freund's adjuvant to induce EAE.
(1) Mice were followed for 6 weeks to determine the induction of EAE.

In another experiment the test system is lymph node cells (LNC). In words: CD4/CD8 ratio of activated LNC by flow cytometry (Example 2). Format: cell-based, mouse. The following applies: activated LNC from immunised mice, 4 per group. How it is done: Lymph nodes from a different group of mice immunised in the same manner were removed 10 days after injection of the peptides and single cell suspensions of lymph node cells (LNC) were prepared.
(3) Other LNC were incubated with antibodies against CD4 or CD8, and the ratio of CD4 to CD8 was determined using flow cytometric techniques. LNC were centrifuged through a Ficoll gradient and washed with PBS containing 1% FCS and 0.01% sodium azide (wash buffer). Aliquots of 1 million cells were incubated with antibodies specific for CD4 (clone RM4-5; rat IgG2a) or CD8a (clone 53-6.7; rat IgG2a) together with an antibody specific for the TCR β-chain (H57-597; hamster IgG) for 30 min at 4° C. in the dark, followed by FITC-conjugate anti-rat κ-chain or PE-conjugated anti-hamster IgG for 30 min at 4° C. in the dark. Isotype-matched primary antibodies were used as controls. All antibodies were purchased from PharMingen (San Diego, Calif.) and were used at 1 μg/ml dilution in wash buffer. After washing, cells were resuspended in wash buffer and analysed using a FACSCalibur flow cytometer (Becton Dickinson, Franklin Lakes, N.J.).
Background: Flow cytometry measures light scatter and fluorescence of single cells or particles in a stream.

In experiment [2] the test system is SJL/J mouse. In words: EAE induction by W144, co-immunisation with Q144 or S-palm Q144 (Example 4). Format: in vivo. On the procedure:
One mg per mL of W144 peptide, either alone or together with Q144 peptide or S-palm Q144 peptide at different molar ratios, was emulsified in an equal volume of complete Freund's adjuvant containing an additional 4 mg/ml Mycobacterium tuberculosis H37Ra. 200 μl of the emulsion (i.e. 100 μg W144) was then injected subcutaneously in a single site on the back of each SJL/J mouse. Each mouse also received 300 ng pertussis toxin intravenously on the same day as the peptide emulsion and then 3 days later.
(§1) The mice were inspected and weighed daily and scored for disease using a 5 point severity scale: 0=no disease; 1=decreased tail tone; 2=no tail tone; 3=hind limb weakness; 4=hind limb paralysis; 5=moribund.

The subject of experiment [3] is SJL/J mouse. In words: EAE induction by F188, co-immunisation with A188 or S-palm A188 (Example 5). Format: in vivo. On the procedure: One mg per mL of F188 peptide, either alone or together with A188 peptide or S-palm A188 peptide at different molar ratios, was emulsified in an equal volume of complete Freund's adjuvant containing an additional 4 mg/ml Mycobacterium tuberculosis H37Ra. 200 μl of the emulsion (i.e. 100 μg F188) was then injected subcutaneously in a single site on the back of each SJL/J mouse. Each mouse also received 300 ng pertussis toxin intravenously on the same day as the peptide emulsion and then 3 days later.
as §1

For experiment [4], the system named is SJL/J mice. In words: Therapeutic treatment of established S-palm-PLP178-191-induced EAE (Example 7). The following applies: 100 μL of 1 mg/mL in PBS s.c. at score 2.0 or 2.5, followed for 7 days, versus PBS, FIG. 6. It counts as in vivo, mouse. How it is done: SJL/J mice were injected subcutaneously with 100 μg S-palm-F188 (S-palm-PLP178-191), i.e. 100 μl of a 1 mg/ml solution emulsified in an equal volume (i.e. 100 μl Complete Freund's Adjuvant containing an extra 4 mg/mL Mycobacterium tuberculosis H37Ra. Each mouse also received 300 ng pertussis toxin intravenously on the same day as the peptide emulsion and then 3 days later.
The mice were then inspected and scored for disease using a 5 point severity scale: 0=no disease; 1=decreased tail tone; 2=no tail tone; 3=hind limb weakness; 4=hind limb paralysis; 5=moribund.
When the mice reached a score between 2.0 or 2.5, each mouse was injected subcutaneously with 100 μL PBS (n=6), 100 μL of 1 mg/mL A188 in PBS (n=6), or 100 μL of 1 mg/mL S-palm-A188 in PBS (n=7).
Mice were then followed for 7 days, and scored each day.

In another experiment the test system is endosomes. In words: Colocalisation of peptide with endosomes in macrophages, confocal microscopy (Example 3). It counts as cell-based, mouse. The following applies: FIG. 3. On the procedure:
(§2) For confocal microscopy, macrophages were isolated from normal 8-12-wk old female SJL/J mice peritoneal cell suspensions by adhesion to glass coverslips. The macrophages were then incubated with 100 μM peptide for between 1 min and 24 h at 37° C., the peptide being one of:
(§3) After incubation, cells were fixed with 4% formaldehyde in PBS for 15 min at room temperature and permeabilised with 0.05% digitonin in PBS for 5 min at room temperature or 0.2% Triton X-100 in PBS for 20 min at room temperature.
(§4) The cells were then incubated with murine antibodies against endosomes, lysosomes, endoplasmic reticulum, or MHC class I or II molecules for 1-3 hours at 37° C. After three washes in PBS, cells were incubated with streptavidin-Alexa 488 (1/400 dilution in PBS) or streptavidin-Cy3 (1/450 dilution in PBS) (both from Molecular Probes) and Texas Red-labeled rabbit anti-mouse IgG or IgM for 30 min in the dark at room temperature. After washing with PBS, coverslips were mounted in Aquapolymount medium. Immunofluorescence staining was monitored with a laser scanning microscope (LSM 510; Carl Zeiss Laboratories) equipped with a Plan-Apochromat 63× oil DIC immersion lens (numerical aperture 1.4). […] Quantification of colocalisation was performed on cells from 10 to 12 fields (at least 100 cells) with the colocalisation module of the Zeiss LSM Image Browser software.

Another experiment has as its system lysosomes. In words: Colocalisation of peptide with lysosomes in macrophages, confocal microscopy (Example 3). Format: cell-based, mouse. The following applies: FIG. 3. On the procedure: as §2, §3, §4
The subject of experiment [5] is endoplasmic reticulum (ER). In words: Colocalisation of peptide with endoplasmic reticulum in macrophages, confocal microscopy (Example 3). It counts as cell-based, mouse. The following applies: 30 or 60 minutes incubation, FIG. 4. How it is done: as §2, §3, §4
In another experiment the test system is MHC class I molecules. In words: Colocalisation of peptide with MHC class I in macrophages, confocal microscopy (Example 3). Format: cell-based, mouse. The following applies: FIG. 5. On the procedure:
as §2, §3, §4

The subject of a further experiment is MHC class II molecules. In words: Colocalisation of peptide with MHC class II in macrophages, confocal microscopy (Example 3). The following applies: FIG. 5. Format: cell-based, mouse. On the procedure:
as §2, §3, §4

[6] abbreviates: EAE, 100 μg W144 alone in CFA s.c.

On to “H2N-HCLGKWLGHPDKF-CO2H (H-HCLGKWLGHPDKF-OH) [PLP139-151]”, for which, in the experiment on SJL/J mice [1], the “Day of Onset” value amounted to 11.0 ± 1.4 days, the Incidence is 4/4, the Score was 3.0 ± 0.7 and the Duration worked out at 5.8 ± 1.8. For the same substance, in the experiment with lymph node cells (LNC), the “CD4/CD8 Ratio (mean ± SEM)” value turned out to be 2.18 ± 0.19. Further, in the experiment with SJL/J mouse [2] (setting [6]), the Incidence is recorded as 4/4 and the “Mean day of onset” value amounted to 11.5 days. The substance further registered a Mean severity with SJL/J mouse [2] (mean maximum severity of mice that developed EAE, 5 point scale, W144 alone) of 4.3.
For the substance “H2N-KTTICGKGLSATVT-CO2H (H-KTTICGKGLSATVT-OH) [PLP104-117]”, in the experiment with SJL/J mice [1], the Incidence was 0/4 and the Score amounted to 0. The “CD4/CD8 Ratio (mean ± SEM)” value in the experiment with lymph node cells (LNC) worked out at 2.31 ± 0.07.
Regarding “H2N-NTWTTCQSIAAPSK-CO2H (H-NTWTTCQSIAAPSK-OH) [A188]”, in the experiment on SJL/J mouse [3] (injected at a dose 5 times greater than the encephalitogenic peptide F188), the “Protective effect on EAE (in words)” value was “protective”. Moreover, the “Mean EAE score after treatment” value with SJL/J mice [4] is “intermediate between the control group and the S-palm-A188-treated group”.
On to “H2N-NTWTTCQSIAFPSK-CO2H (H-NTWTTCQSIAFPSK-OH) [PLP178-191]”, for which, in the experiment with SJL/J mice [1], the “Day of Onset” value came to 13.0 ± 1.5 days, the Incidence was 5/5, the Score was determined as 2.7 ± 0.9 and the Duration is given as 5.8 ± 0.4. This substance also displayed a Mean severity with SJL/J mouse [3] (5 point scale, F188 alone) of 2.8 ± 0.3. For the same substance, the Incidence in the experiment on SJL/J mouse [3] (EAE, 100 μg F188 alone in CFA s.c.) was 8/8. Besides, the “Mean day of onset” value with SJL/J mouse [3] (EAE, F188 alone) is 11.3 ± 0.5 days.
For the substance “PLP139-151 Cys140-Palm Lys150-Biot (S-palm) (HCLGKWLGHPDKF) [S-palm peptide]”, in the experiment with endosomes, the Colocalisation with endosomes result is “colocalised rapidly and strongly with endosomes”. Further, in the experiment on lysosomes, the Colocalisation with lysosomes result is listed as “colocalised strongly with lysosomes”. Further, the “Colocalisation with endoplasmic reticulum (ER)” value in experiment [5] was “but not S-palm peptide colocalised strongly”. The “Colocalisation with MHC class I” value in the experiment on MHC class I molecules was “only a small percentage”. Further, the “Colocalisation with MHC class II” value with MHC class II molecules is listed as “colocalised strongly with MHC class II”.
As for “PLP139-151 His139-Palm Lys150-Biot (N-palm) (HCLGKWLGHPDKF) [N-palm peptide]”, in the experiment on endosomes, the Colocalisation with endosomes entry was “did not colocalise strongly with endosomes in most cells”. Moreover, in the experiment with lysosomes, the Colocalisation with lysosomes result is “did not colocalise strongly with lysosomes in most cells”. The “Colocalisation with endoplasmic reticulum (ER)” value in experiment [5] is “colocalised strongly with endoplasmic reticulum (ER)”. Further, the “Colocalisation with MHC class I” value in the experiment on MHC class I molecules is “colocalised strongly with MHC class I”.
